Data taken from PubChem BioAssay AID248 (DTP/NCI, 2004).
“And” between values parts separate entries of the source, which are not always exact repeats. Identical values can stand only once. Toxic doses and inconclusive results are not listed.

Tested on: L1210 leukemia ip in BDF1 mice, survival T/C
Test: NCI In Vivo Anticancer Drug Screen. Data for tumor model L1210 Leukemia (intraperitoneal) in B6D2F1 (BDF1) mice
Settings: endpoint: mean survival time, higher = longer survival
Summary of the method: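 Transplanted-tumor mice were given test agent; controls received vehicle only. Survival readings from the two groups were divided (treated over control).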

[1] = dose: 100.0 mg/kg/injection, schedule: Q01DX009 (ip), vehicle: other
[2] = dose: 200.0 mg/kg/injection, schedule: Q01DX009 (ip), vehicle: other
[3] = dose: 400.0 mg/kg/injection, schedule: Q01DX009 (ip), vehicle: other
[4] = dose: 50.0 mg/kg/injection, schedule: Q01DX009 (ip), vehicle: saline
[5] = dose: 100.0 mg/kg/injection, schedule: Q01DX009 (ip), vehicle: saline
[6] = dose: 200.0 mg/kg/injection, schedule: Q01DX009 (ip), vehicle: saline
[7] = dose: 100.0 mg/kg/injection, schedule: Q01DX001 (ip), vehicle: saline
[8] = dose: 200.0 mg/kg/injection, schedule: Q01DX001 (ip), vehicle: saline
[9] = dose: 400.0 mg/kg/injection, schedule: Q01DX001 (ip), vehicle: saline
[10] = dose: 100.0 mg/kg/injection, schedule: Q01DX009 (ip), vehicle: saline with Tween-80
[11] = dose: 100.0 mg/kg/injection, schedule: Q04DX003 (ip), vehicle: saline with Tween-80
[12] = dose: 200.0 mg/kg/injection, schedule: Q01DX009 (ip), vehicle: saline with Tween-80
[13] = dose: 200.0 mg/kg/injection, schedule: Q04DX003 (ip), vehicle: saline with Tween-80
[14] = dose: 400.0 mg/kg/injection, schedule: Q04DX003 (ip), vehicle: saline with Tween-80
[15] = dose: 100.0 mg/kg/injection, schedule: Q04DX002 (ip), vehicle: saline with Tween-80
[16] = dose: 200.0 mg/kg/injection, schedule: Q04DX002 (ip), vehicle: saline with Tween-80
[17] = dose: 400.0 mg/kg/injection, schedule: Q04DX002 (ip), vehicle: saline with Tween-80
[18] = dose: 100.0 mg/kg/injection, schedule: Q04DX003 (ip), vehicle: Klucel (hydroxypropylcellulose) (HPC)
[19] = dose: 100.0 mg/kg/injection, schedule: Q04DX003 (ip), vehicle: saline
[20] = dose: 200.0 mg/kg/injection, schedule: Q04DX003 (ip), vehicle: saline

## COC(=O)c1cccc(O)c1O
dose: 100.0 mg/kg/injection, schedule: Q01DX005 (ip), vehicle: other
  T/C: 96 % of control
[1]
  T/C: 114 % of control
dose: 200.0 mg/kg/injection, schedule: Q01DX005 (ip), vehicle: other
  T/C: 100 % of control
[2]
  T/C: 107 % of control
dose: 400.0 mg/kg/injection, schedule: Q01DX005 (ip), vehicle: other
  T/C: 104 % of control
[3]
  T/C: 88 % of control

## COc1ccc(CCc2ccc(OC)cc2)cc1
dose: 25.0 mg/kg/injection, schedule: Q04DX002 (ip), vehicle: saline
  T/C: 106 % of control
dose: 50.0 mg/kg/injection, schedule: Q04DX002 (ip), vehicle: saline
  T/C: 117 % of control
dose: 100.0 mg/kg/injection, schedule: Q04DX002 (ip), vehicle: saline
  T/C: 109 % of control

## c1ccc(P2(c3ccccc3)=NP(c3ccccc3)(c3ccccc3)=NP(c3ccccc3)(c3ccccc3)=N2)cc1
[4]
  T/C: 89 % of control
[5]
  T/C: 86 % of control
[6]
  T/C: 88 % of control

## C1OCOCO1
dose: 25.0 mg/kg/injection, schedule: Q01DX009 (ip), vehicle: saline
  T/C: 92 % of control
[4]
  T/C: 97 % of control
[5]
  T/C: 95 % of control
[6]
  T/C: 97 % of control

## CC1C(O)CN1C(C)(C)C (configuration not stated)
[7]
  T/C: 105 % of control
[8]
  T/C: 106 % of control
[9]
  T/C: 108 % of control

## O=C(NSN1CCOCC1)c1ccccc1
dose: 100.0 mg/kg/injection, schedule: Q04DX002 (ip), vehicle: Klucel (hydroxypropylcellulose) (HPC)
  T/C: 102 % of control
dose: 200.0 mg/kg/injection, schedule: Q04DX002 (ip), vehicle: Klucel (hydroxypropylcellulose) (HPC)
  T/C: 98 % of control

## COc1ccc(C(=O)C[N+](=O)[O-])cc1
[10]
  T/C: 94 % of control
[11]
  T/C: 106 % of control
[12]
  T/C: 99 % of control
[13]
  T/C: 103 % of control
[14]
  T/C: 101 % of control

## CC(=O)CC(=O)Nc1cc(C(F)(F)F)ccc1Cl
[7]
  T/C: 97 % of control
[8]
  T/C: 101 % of control
[9]
  T/C: 101 % of control

## CS(=O)(=O)c1ccc(Nn2c(N)nn(-c3ccc(S(C)(=O)=O)cc3)c2=N)cc1
[4]
  T/C: 93 % of control and 95 % of control and 96 % of control
[5]
  T/C: 95 % of control and 86 % of control
[6]
  T/C: 97 % of control and 107 % of control and 92 % of control

## CCOC(=O)CC(C)(O)C1CC1 (configuration not stated)
[11]
  T/C: 98 % of control
[13]
  T/C: 96 % of control
[14]
  T/C: 98 % of control

## O=C(Nc1ccc(F)c([N+](=O)[O-])c1)Oc1cccnc1
dose: 25.0 mg/kg/injection, schedule: Q01DX009 (ip), vehicle: saline with Tween-80
  T/C: 97 % of control and 99 % of control
dose: 50.0 mg/kg/injection, schedule: Q01DX009 (ip), vehicle: saline with Tween-80
  T/C: 95 % of control and 96 % of control
dose: 100.0 mg/kg/injection, schedule: Q01DX001 (ip), vehicle: saline with Tween-80
  T/C: 108 % of control
[15]
  T/C: 95 % of control and 100 % of control
[11]
  T/C: 97 % of control
dose: 200.0 mg/kg/injection, schedule: Q01DX001 (ip), vehicle: saline with Tween-80
  T/C: 109 % of control
[16]
  T/C: 104 % of control and 109 % of control
[13]
  T/C: 100 % of control
[17]
  T/C: 102 % of control and 103 % of control

## CC(=O)Nc1c(Cl)c(Cl)c2c(c1Cl)Cc1cc(F)ccc1-2
dose: 62.5 mg/kg/injection, schedule: Q01DX Z (ip), vehicle: saline
  T/C: 97 % of control
[11]
  T/C: 101 % of control
dose: 125.0 mg/kg/injection, schedule: Q01DX Z (ip), vehicle: saline
  T/C: 95 % of control
[13]
  T/C: 93 % of control
dose: 250.0 mg/kg/injection, schedule: Q01DX Z (ip), vehicle: saline
  T/C: 101 % of control
[14]
  T/C: 95 % of control
dose: 500.0 mg/kg/injection, schedule: Q01DX Z (ip), vehicle: saline
  T/C: 95 % of control
dose: 650.0 mg/kg/injection, schedule: Q01DX Z (ip), vehicle: saline
  T/C: 96 % of control
dose: 800.0 mg/kg/injection, schedule: Q01DX Z (ip), vehicle: saline
  T/C: 102 % of control

## CCOC(=N)c1nnn(Cc2ccccc2)c1N
[7]
  T/C: 89 % of control
[8]
  T/C: 89 % of control

## O=C(/C=C/c1ccco1)c1ccc([N+](=O)[O-])cc1
dose: 25.0 mg/kg/injection, schedule: Q04DX003 (ip), vehicle: Klucel (hydroxypropylcellulose) (HPC)
  T/C: 106 % of control
dose: 50.0 mg/kg/injection, schedule: Q04DX003 (ip), vehicle: Klucel (hydroxypropylcellulose) (HPC)
  T/C: 104 % of control
[18]
  T/C: 97 % of control

## Cc1ccccc1C(C)(O)c1cnc(C)n1Cc1ccccc1 (configuration not stated)
[10]
  T/C: 94 % of control and 98 % of control
[15]
  T/C: 97 % of control and 103 % of control
[12]
  T/C: 95 % of control and 103 % of control
[16]
  T/C: 97 % of control and 100 % of control
dose: 400.0 mg/kg/injection, schedule: Q01DX009 (ip), vehicle: saline with Tween-80
  T/C: 98 % of control and 100 % of control
[17]
  T/C: 95 % of control and 101 % of control

## Cc1cc(C)c(NC(=O)Nc2cccc3ccccc23)c(C)c1
dose: 25.0 mg/kg/injection, schedule: Q01DX009 (ip), vehicle: Klucel (hydroxypropylcellulose) (HPC)
  T/C: 95 % of control
dose: 50.0 mg/kg/injection, schedule: Q01DX009 (ip), vehicle: Klucel (hydroxypropylcellulose) (HPC)
  T/C: 96 % of control
dose: 100.0 mg/kg/injection, schedule: Q01DX009 (ip), vehicle: Klucel (hydroxypropylcellulose) (HPC)
  T/C: 96 % of control and 103 % of control
[18]
  T/C: 96 % of control
dose: 200.0 mg/kg/injection, schedule: Q01DX009 (ip), vehicle: Klucel (hydroxypropylcellulose) (HPC)
  T/C: 92 % of control
dose: 200.0 mg/kg/injection, schedule: Q04DX003 (ip), vehicle: Klucel (hydroxypropylcellulose) (HPC)
  T/C: 93 % of control
dose: 400.0 mg/kg/injection, schedule: Q01DX009 (ip), vehicle: Klucel (hydroxypropylcellulose) (HPC)
  T/C: 91 % of control
dose: 400.0 mg/kg/injection, schedule: Q04DX003 (ip), vehicle: Klucel (hydroxypropylcellulose) (HPC)
  T/C: 96 % of control

## CS(=O)(=O)N(CC(=O)O)Cc1cccc(Cl)c1
[1]
  T/C: 100 % of control
dose: 100.0 mg/kg/injection, schedule: Q04DX003 (ip), vehicle: other
  T/C: 100 % of control
[2]
  T/C: 101 % of control
dose: 200.0 mg/kg/injection, schedule: Q04DX003 (ip), vehicle: other
  T/C: 102 % of control
[3]
  T/C: 97 % of control
dose: 400.0 mg/kg/injection, schedule: Q04DX003 (ip), vehicle: other
  T/C: 103 % of control

## CC(C)c1ccc(N2C(=O)CSC2=S)cc1
[15]
  T/C: 97 % of control
[16]
  T/C: 87 % of control

## O=C(O)c1ccc(C(=O)O)c(O)c1O
[4]
  T/C: 120 % of control
[7]
  T/C: 100 % of control
[5]
  T/C: 105 % of control
[19]
  T/C: 89 % of control
[8]
  T/C: 92 % of control
[6]
  T/C: 116 % of control
[20]
  T/C: 96 % of control
[9]
  T/C: 94 % of control

## C[C@H]1C[C@H]2[C@@H]3CC[C@](O)(C(=O)CF)[C@@]3(C)C[C@H](O)[C@]2(F)[C@@]2(C)C=CC(=O)C=C12
dose: 50.0 mg/kg/injection, schedule: Q01DX001 (ip), vehicle: carboxymethylcellulose (CMC)
  T/C: 105 % of control
dose: 100.0 mg/kg/injection, schedule: Q01DX001 (ip), vehicle: carboxymethylcellulose (CMC)
  T/C: 113 % of control
dose: 200.0 mg/kg/injection, schedule: Q01DX001 (ip), vehicle: carboxymethylcellulose (CMC)
  T/C: 113 % of control
dose: 400.0 mg/kg/injection, schedule: Q01DX001 (ip), vehicle: carboxymethylcellulose (CMC)
  T/C: 113 % of control

## CC1CCCC[N-]1.CC1CCCC[N-]1.CC1CCCC[N-]1.CC1CCCC[N-]1.N#CS.[Zn+2] (configuration not stated)
[7]
  T/C: 93 % of control
[8]
  T/C: 103 % of control

## CCCCN(C)/N=N/c1[nH]ncc1C(=O)OC
dose: 268.0 mg/kg/injection, schedule: Q01DX007 (ip), vehicle: other
  T/C: 150 % of control
dose: 600.0 mg/kg/injection, schedule: Q01DX007 (ip), vehicle: other
  T/C: 88 % of control

## O=C1CCN2C=CC=CC2=N1
[5]
  T/C: 98 % of control
[19]
  T/C: 100 % of control
[6]
  T/C: 93 % of control
[20]
  T/C: 101 % of control
dose: 400.0 mg/kg/injection, schedule: Q01DX009 (ip), vehicle: saline
  T/C: 97 % of control
dose: 400.0 mg/kg/injection, schedule: Q04DX003 (ip), vehicle: saline
  T/C: 106 % of control

## O=NN(Cc1ccccc1)NC(=O)c1ccccc1
dose: 100.0 mg/kg/injection, schedule: Q04DX002 (ip), vehicle: gum acacia
  T/C: 96 % of control
dose: 200.0 mg/kg/injection, schedule: Q04DX002 (ip), vehicle: gum acacia
  T/C: 104 % of control

## O=c1c2ccccc2ncn1C1OC(CO)C(O)C1O (configuration not stated)
[7]
  T/C: 96 % of control
[8]
  T/C: 102 % of control
[9]
  T/C: 104 % of control
